Results from PMC8809408 (Frontiers in Pharmacology, 2022).

Test system: pseudotyped viruses harboring glycoprotein of vesicular stomatitis virus (VSV)
Format: cell-based

SMILES | luciferase activity (infection by VSV-G pseudotyped viruses)
CN(C)CCCC1(c2ccc(F)cc2)OCc2cc(C#N)ccc21 (stereo not shown) [Citalopram] | remained ineffective
CN(C)CCCN1c2ccccc2CCc2ccc(Cl)cc21 [Clomipramine] | reduced the infection
CNCCC(Oc1ccc(C(F)(F)F)cc1)c1ccccc1 (stereo not shown) [Fluoxetine] | reduced the infection
OCCN1CCN(CCC=C2c3ccccc3Sc3ccc(C(F)(F)F)cc32)CC1 [Flupenthixol] | reduced the infection
COCCCC/C(=N\OCCN)c1ccc(C(F)(F)F)cc1 [Fluvoxamine] | remained ineffective
Fc1ccc([C@@H]2CCNC[C@H]2COc2ccc3c(c2)OCO3)cc1 [Paroxetine] | remained ineffective
CCOc1ccccc1OC(c1ccccc1)C1CNCCO1 (stereo not shown) [Reboxetine] | reduced the infection
